Data from ChEMBL document CHEMBL5505964, “HDAC/NAMPT dual inhibitors overcome initial drug-resistance in p53-null leukemia cells” (Eur J Med Chem, 2024).

Legend:
[1] = target: Nicotinamide phosphoribosyltransferase (Homo sapiens, UniProt P43490); assay: Inhibition of N-terminal GST-tagged human recombinant NAMPT (2 to 491 residues) expressed in Escherichia coli expression system incubated for 30 mins by fluorescence based analysis
[2] = tested on: MV4-11; assay: Antiproliferative activity against human MV4-11 cells harboring wild type p53 assessed as induction of cell death incubated for 48 hrs by resazurin dye based fluorescence analysis; type: functional; conditions: read-out: LD50 (the source's name)
[3] = target: T1, Histone deacetylase 7 (Homo sapiens, UniProt Q8WUI4); assay: Inhibition of N-terminal GST-tagged human HDAC7 (518 to end residues) expressed in baculovirus-infected Sf9 cells using Boc-Lys-(trifluoroacetyl)-AMC as substrate preincubated with enzyme for 1 hr followed by substrate addition and measured after 2 hrs by fluorescence analysis
T1 sequence (Q8WUI4 whole entry): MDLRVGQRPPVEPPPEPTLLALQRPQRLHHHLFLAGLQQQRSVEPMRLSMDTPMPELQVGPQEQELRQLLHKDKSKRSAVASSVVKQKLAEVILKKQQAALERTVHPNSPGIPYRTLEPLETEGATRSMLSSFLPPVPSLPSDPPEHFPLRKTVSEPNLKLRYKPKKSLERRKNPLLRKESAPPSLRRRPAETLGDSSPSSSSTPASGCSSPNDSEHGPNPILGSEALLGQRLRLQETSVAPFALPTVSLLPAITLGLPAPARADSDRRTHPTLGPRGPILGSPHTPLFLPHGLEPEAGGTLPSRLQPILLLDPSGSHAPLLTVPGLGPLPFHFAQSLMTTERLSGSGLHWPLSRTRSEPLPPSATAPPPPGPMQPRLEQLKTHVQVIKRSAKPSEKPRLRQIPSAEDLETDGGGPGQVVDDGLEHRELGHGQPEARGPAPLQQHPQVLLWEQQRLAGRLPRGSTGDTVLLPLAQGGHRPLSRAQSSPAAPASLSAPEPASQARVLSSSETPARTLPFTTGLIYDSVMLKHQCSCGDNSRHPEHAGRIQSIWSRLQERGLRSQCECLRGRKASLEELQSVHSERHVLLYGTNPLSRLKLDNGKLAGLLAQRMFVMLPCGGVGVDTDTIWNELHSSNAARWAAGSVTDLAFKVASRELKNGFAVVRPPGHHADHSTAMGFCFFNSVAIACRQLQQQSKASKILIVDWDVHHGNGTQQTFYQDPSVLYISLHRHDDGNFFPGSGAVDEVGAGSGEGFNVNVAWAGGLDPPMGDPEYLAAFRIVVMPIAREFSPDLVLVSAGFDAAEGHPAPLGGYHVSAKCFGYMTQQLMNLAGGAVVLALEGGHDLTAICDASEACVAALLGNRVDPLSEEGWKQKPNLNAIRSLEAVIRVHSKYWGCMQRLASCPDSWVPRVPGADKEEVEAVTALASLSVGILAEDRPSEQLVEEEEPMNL

[4] = target: Histone deacetylase 3/Nuclear receptor corepressor 2 (HDAC3/NCoR2) (Homo sapiens, UniProt O15379); assay: Inhibition of C-terminal His-tagged human HDAC3 (1 to 428 residues)/N-terminal GST tagged human NCOR2 (395 to 489 residues) expressed in baculovirus-infected Sf9 cells using Boc-Lys-(acetyl)-AMC as substrate preincubated with enzyme for 1 hr followed by substrate addition and measured after 2 hrs by fluorescence analysis
[5] = Plasma clearance in CD-1 male mouse at 5 mg/kg, iv measured for 24 hrs by LC-MS/MS analysis; type: ADME, organism-based; conditions: CD-1, mouse
[6] = AUC (0 to infinity) in CD-1 male mouse at 5 mg/kg, iv by LC-MS/MS analysis; type: ADME, organism-based; conditions: CD-1, mouse, in vivo
[7] = Half life in CD-1 male mouse at 5 mg/kg, iv measured for 24 hrs by LC-MS/MS analysis; type: ADME, organism-based; conditions: CD-1, mouse, in vivo
[8] = Cmax in CD-1 male mouse at 5 mg/kg, iv measured for 24 hrs by LC-MS/MS analysis; type: ADME, organism-based; conditions: CD-1, mouse, in vivo

Chain of Histone deacetylase 3/Nuclear receptor corepressor 2 (HDAC3/NCoR2) (O15379 whole entry, the tested form may be a part): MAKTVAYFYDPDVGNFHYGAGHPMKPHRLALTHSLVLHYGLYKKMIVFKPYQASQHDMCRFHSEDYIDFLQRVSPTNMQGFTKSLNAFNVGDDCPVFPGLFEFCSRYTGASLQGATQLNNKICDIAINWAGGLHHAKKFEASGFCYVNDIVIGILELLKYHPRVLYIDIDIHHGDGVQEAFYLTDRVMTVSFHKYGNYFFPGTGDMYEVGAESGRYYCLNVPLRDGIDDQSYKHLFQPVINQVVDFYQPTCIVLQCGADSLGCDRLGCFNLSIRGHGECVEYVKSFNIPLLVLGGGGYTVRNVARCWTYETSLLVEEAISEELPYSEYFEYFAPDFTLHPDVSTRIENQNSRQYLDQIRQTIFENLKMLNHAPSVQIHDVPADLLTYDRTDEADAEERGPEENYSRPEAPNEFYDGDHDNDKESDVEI
Chain of Histone deacetylase 3/Nuclear receptor corepressor 2 (HDAC3/NCoR2) (Q9Y618 whole entry, further chain, the tested form may be a part): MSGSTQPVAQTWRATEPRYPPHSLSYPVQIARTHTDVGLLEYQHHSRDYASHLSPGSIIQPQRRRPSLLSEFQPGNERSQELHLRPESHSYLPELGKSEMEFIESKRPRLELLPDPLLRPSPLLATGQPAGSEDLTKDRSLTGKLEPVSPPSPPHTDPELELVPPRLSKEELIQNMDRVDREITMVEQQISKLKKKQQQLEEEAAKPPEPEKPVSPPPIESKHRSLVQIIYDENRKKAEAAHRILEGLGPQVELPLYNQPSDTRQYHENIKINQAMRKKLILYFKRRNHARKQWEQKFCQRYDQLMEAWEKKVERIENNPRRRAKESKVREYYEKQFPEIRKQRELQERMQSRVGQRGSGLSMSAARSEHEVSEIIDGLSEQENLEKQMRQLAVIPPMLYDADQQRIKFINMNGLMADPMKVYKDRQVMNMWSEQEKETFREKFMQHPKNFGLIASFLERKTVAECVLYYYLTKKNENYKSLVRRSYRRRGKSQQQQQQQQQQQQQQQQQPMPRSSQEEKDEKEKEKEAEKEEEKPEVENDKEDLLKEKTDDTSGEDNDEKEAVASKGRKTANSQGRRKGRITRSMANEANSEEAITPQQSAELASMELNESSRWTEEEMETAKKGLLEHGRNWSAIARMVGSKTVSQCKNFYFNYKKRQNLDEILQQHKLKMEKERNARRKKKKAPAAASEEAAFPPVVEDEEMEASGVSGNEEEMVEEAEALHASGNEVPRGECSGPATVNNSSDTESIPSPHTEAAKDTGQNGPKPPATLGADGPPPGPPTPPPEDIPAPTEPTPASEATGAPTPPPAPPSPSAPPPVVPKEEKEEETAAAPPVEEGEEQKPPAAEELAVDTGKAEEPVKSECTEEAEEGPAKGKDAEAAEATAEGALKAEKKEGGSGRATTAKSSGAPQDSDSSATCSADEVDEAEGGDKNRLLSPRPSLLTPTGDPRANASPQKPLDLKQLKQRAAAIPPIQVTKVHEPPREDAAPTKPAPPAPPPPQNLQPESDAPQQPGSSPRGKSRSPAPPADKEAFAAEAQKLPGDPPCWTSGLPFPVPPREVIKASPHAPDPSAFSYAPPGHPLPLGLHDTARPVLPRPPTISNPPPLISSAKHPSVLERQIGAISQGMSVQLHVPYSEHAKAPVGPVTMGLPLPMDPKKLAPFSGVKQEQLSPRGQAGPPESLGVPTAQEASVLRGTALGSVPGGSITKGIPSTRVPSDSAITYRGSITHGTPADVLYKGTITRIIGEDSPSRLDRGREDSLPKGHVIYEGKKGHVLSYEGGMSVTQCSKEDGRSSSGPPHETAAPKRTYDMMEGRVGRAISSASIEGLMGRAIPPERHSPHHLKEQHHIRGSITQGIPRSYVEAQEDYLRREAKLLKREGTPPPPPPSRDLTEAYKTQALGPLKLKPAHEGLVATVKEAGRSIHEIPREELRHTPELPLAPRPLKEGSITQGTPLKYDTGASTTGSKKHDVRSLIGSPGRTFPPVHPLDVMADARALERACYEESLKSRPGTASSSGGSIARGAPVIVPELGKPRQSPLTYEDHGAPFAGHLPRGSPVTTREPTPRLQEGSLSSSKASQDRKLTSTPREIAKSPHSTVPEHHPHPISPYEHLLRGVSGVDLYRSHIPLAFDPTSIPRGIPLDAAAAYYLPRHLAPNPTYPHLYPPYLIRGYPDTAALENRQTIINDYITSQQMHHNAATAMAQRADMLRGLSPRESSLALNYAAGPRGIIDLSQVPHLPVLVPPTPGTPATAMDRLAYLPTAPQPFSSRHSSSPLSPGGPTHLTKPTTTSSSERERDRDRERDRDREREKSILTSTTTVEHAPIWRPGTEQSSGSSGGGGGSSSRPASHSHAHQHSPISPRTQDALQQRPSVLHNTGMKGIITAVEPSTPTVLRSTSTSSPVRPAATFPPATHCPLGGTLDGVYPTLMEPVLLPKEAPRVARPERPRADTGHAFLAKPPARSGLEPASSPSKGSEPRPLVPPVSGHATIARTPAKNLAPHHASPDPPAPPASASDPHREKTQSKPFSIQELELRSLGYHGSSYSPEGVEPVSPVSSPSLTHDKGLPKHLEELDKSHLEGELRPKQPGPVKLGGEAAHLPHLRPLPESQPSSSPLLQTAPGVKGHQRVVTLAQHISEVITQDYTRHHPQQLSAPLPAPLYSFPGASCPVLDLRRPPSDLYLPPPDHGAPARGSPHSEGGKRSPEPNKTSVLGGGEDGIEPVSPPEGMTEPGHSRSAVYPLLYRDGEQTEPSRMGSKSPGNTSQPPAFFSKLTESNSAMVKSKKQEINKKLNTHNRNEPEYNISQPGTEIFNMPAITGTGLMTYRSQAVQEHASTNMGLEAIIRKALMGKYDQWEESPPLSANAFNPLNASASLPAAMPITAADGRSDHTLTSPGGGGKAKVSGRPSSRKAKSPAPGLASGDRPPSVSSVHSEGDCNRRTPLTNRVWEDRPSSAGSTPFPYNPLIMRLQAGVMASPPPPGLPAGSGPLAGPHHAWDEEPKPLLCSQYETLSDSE
Chain of Nicotinamide phosphoribosyltransferase (P43490 whole entry, the tested form may be a part): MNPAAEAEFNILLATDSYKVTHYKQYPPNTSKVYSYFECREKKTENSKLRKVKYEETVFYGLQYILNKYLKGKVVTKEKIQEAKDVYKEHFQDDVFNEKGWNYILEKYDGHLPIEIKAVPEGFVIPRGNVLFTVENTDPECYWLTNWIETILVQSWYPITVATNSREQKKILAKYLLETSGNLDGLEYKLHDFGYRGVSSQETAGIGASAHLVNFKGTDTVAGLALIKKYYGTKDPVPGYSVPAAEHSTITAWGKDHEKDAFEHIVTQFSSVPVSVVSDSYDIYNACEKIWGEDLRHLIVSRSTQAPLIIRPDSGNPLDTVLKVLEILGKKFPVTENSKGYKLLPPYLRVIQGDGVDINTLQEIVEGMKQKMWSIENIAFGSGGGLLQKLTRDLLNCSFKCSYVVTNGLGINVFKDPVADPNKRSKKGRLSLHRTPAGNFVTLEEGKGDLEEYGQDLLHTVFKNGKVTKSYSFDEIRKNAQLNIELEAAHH

SMILES | IC50 [1] [nM] | CC50 [2] [nM] | IC50 [3] [nM] | IC50 [4] [nM] | clearance [5] [mL/min/kg] | AUC(0-inf) [6] [ng·h/mL] | half-life [7] [h] | Cmax [8] [ng/mL]
CCCNNC(=O)c1ccc(CNC(=O)/C=C/c2cccnc2)cc1 | 1660 | 218 | > 10000 | – | – | – | – | –
CCCNNC(=O)c1ccc(CNC(=O)c2cc3cnccc3[nH]2)cc1 | – | 58.2 | > 10000 | 0.72 | 25.1 | 3360 | 9.19 | 11700
